Experimental findings from US20260200845A1, “NEUTROPHIL ELASTASE INHIBITOR AND USE THEREOF” (Shanghai Yidi Biotechnology Co., Ltd, priority 2023, published 2026) are described below.

The target of experiment [1] is T1, rhELA2 (Homo sapiens, UniProt P08246).
T1 sequence (P08246 30-267): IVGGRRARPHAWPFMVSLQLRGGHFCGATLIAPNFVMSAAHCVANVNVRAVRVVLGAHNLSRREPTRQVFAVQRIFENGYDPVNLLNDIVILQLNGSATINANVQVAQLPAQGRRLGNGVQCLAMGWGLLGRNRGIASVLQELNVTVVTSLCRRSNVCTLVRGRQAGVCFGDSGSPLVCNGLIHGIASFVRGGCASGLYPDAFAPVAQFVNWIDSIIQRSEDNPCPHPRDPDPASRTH
The experiment is described as follows: Neutrophil elastase (rhELA2) fluorescence inhibition assay. Conditions: rhELA2 activated with DPPI; 30 min preincubation, 1 hr with substrate, fluorescence 360 nm/450 nm. In kind it is biochemical. The method, then: Compound preparation: All compounds were dissolved in DMSO at a concentration of 10 mM, and stored at −20° C.
A 1× assay buffer was prepared. […] 1 μL of the serially diluted compound and 65.67 μL of the assay buffer were added into a plate, to obtain 3× working solutions of the positive compound and the test compounds (the final concentration in DMSO was 1.5%). The plate was sealed with a sealing film and shaken on an oscillator for 15 min.
A 1× activation buffer was prepared. rhELA2 was diluted in the activation buffer containing DPPI and incubated at 37° C. for 2 hrs to activate rhELA2. 5 μl of the 3× diluted working solutions of the compound was added to a 384-well plate. rhELA2 was diluted with the 1× assay buffer, to obtain a 3× working solution of rhELA2. 5 μl of the 3× working solution of rhELA2 was added to each well of the 384-well plate. The plate was sealed and incubated for 30 min at room temperature in the dark.
A 3× substrate solution was prepared in the 1× assay buffer. 5 μl of the 3× working solution of the substrate was added into the 384-well plate. The 384-well plate was centrifuged at 1000 rpm for 1 min, and incubated for 1 hr at room temperature in the dark. The fluorescence value FLU at 360 nm/450 nm was read on a plate reader.
The inhibition rate % was calculated. Inhibition rate=(1−(FLU of the compound−FLU of the positive well)/(FLU of the reference well−FLU of the positive well)). FLU of the reference well is that of a well with only the enzyme and no the inhibitor, and FLU of the positive well is that of a well with the enzyme and 3000 nm Sivelestat-2. Then the IC50 value was calculated by the formula Y=Bottom+(Top−Bottom)/(1+10^((LogIC50−X)*HillSlope)) using Graphpad 8.0 software.

Experiment [2] concerns rat model of hydrochloric acid-induced acute lung injury. In words: Animal Test 2: rat model of hydrochloric acid-induced acute lung injury. Type of experiment: in vivo, rats. The method, then:
Animal grouping: 4 groups, each group having 8 animals.
Establishment of rat model of hydrochloric acid-induced acute lung injury: 0.1 N HCL was sprayed into the trachea of rats at a dosage of 0.1 mL/rat.
Both groups were administered twice by tail vein injection, immediately after the model establishment and again 2.5 hrs after the model establishment.
The rats were sacrificed 5 h after the model establishment. Alveolar lavage was performed. The inflammatory cells, protein exudation, pulmonary hemorrhage and NE enzyme activity in the lavage fluid were measured.

Experiment [3] has as its system mouse model of LPS-induced acute lung injury. The experiment is described as follows: Animal Test 1: mouse model of LPS-induced acute lung injury. Type of experiment: in vivo, ICR mice. Conditions: for Content of inflammatory factor IL-1β (Mean ± SD) / Content of inflammatory factor TNF-α (Mean ± SD): left lung homogenate supernatant, 24 h after LPS, i.v. 25 mg/kg at 0.5 h, 4 h and 12 h, total 75 mg/kg. The method, then: Test animals: ICR mice, SPF grade, male, weight at the time of administration: 25-28 g.
Animal grouping: 4 groups, each group having 10 animals.
Establishment of mouse model of LPS-induced acute lung injury: The mice were anesthetized by intramuscular injection of Zoletil®50 (0.05 mL/mouse). Then the mice were fixed in a supine position, the cervical trachea was isolated, and lipopolysaccharide (LPS) (1 mg/mL, 35 μL/mouse) was sprayed by a high-pressure atomizing nozzle. The neck skin was sutured, and disinfected with iodophor.
The dosage at each administration was 25 mg/kg, and the total daily dosage was 75 mg/kg.
24 h after LPS was sprayed into the trachea of mice, the mice were sacrificed, and the trachea was isolated and intubated. The left lung lobe was ligated. The lung lavage was carried out with 0.5 mL normal saline (containing 1% serum and 2 U/mL heparin), and then the process was repeated two times. The lavage fluids of the 3 times were mixed and stood on ice for later use. The ligated left lung lobe was removed from the animal Nos. 1-8 in the blank control group, the model group, the test group and the positive control group respectively, weighed, added with 0.9% NaCl at a ratio of 1:6, homogenized at 4° C. and centrifuged at 10000 rpm for 10 min. The supernatant was collected and the contents of inflammatory factors IL-1B and TNF-α were determined.

[4] abbreviates: alveolar lavage fluid 5 h after model establishment, tail vein injection twice, total 120 mg/kg.
Setting [5] is: alveolar lavage fluid 5 h after model establishment, tail vein injection twice, total 30 mg/kg.

In experiment [1], `Cn1nccc1-c1ccc(NS(=O)(=O)c2ccc(OC(=O)C(C)(C)C)cc2)c(C(=O)NCC(=O)O)c1` [Compound 1, (5-(1-methyl-1H-pyrazol-5-yl)-2-((4-(pivaloyloxy)phenyl)sulfonamido)benzoyl)glycine] registered an IC50 of 20.4 nM.
In experiment [1], `Cn1cc(-c2ccc(NS(=O)(=O)c3ccc(OC(=O)C(C)(C)C)cc3)c(C(=O)NCC(=O)O)c2)cn1` [Compound 2] returned an IC50 of 30.5 nM.
Take `CC(C)(C)C(=O)Oc1ccc(S(=O)(=O)Nc2ccc(-n3ccnc3)cc2C(=O)NCC(=O)O)cc1` [Compound 3]: half-maximal inhibition in experiment [1] (IC50) was put at 23.6 nM.
The same measure, in the same setting: then `CC(C)(C)C(=O)Oc1ccc(S(=O)(=O)N[C@@H]2CCC(F)(F)C[C@@H]2C(=O)NCC(=O)O)cc1` [Compound 6], with 32.8 nM; and `CC(C)(C)C(=O)Oc1ccc(S(=O)(=O)Nc2ccc(-c3cnoc3)cc2C(=O)NCC(=O)O)cc1` [Compound 11], with 27 nM.
In experiment [1], `CC(C)(C)C(=O)Oc1ccc(S(=O)(=O)Nc2ccccc2C(=O)NCP(=O)(O)O)cc1` [Compound 12, ((2-((4-(pivaloyloxy)phenyl)sulfonamido)benzamido)methyl)phosphonic acid] registered an IC50 of 5.69 nM. This IC50 is about 4.7-fold lower than that of the compound before.
Consider `CC(C)(C)C(=O)Oc1ccc(S(=O)(=O)Nc2ccccc2C(=O)NCCS(=O)(=O)O)cc1` [Compound 13, 2-(2-((4-(pivaloyloxy)phenyl)sulfonamido)benzamido) ethan-1-sulfonic acid], for which the IC50 in experiment [1] amounted to 4.22 nM.
Regarding `COc1ccc(NS(=O)(=O)c2ccc(OC(=O)C(C)(C)C)cc2)c(C(=O)NCC(=O)O)c1` [Compound 17], the IC50 in experiment [1] worked out at 15.3 nM.
Take `CC(C)(C)C(=O)Oc1ccc(S(=O)(=O)Nc2ccccc2C(=O)N[C@H](CF)C(=O)O)cc1` [Compound 19]: in experiment [1], the IC50 is 2.25 nM.
For `COC[C@@H](NC(=O)c1ccccc1NS(=O)(=O)c1ccc(OC(=O)C(C)(C)C)cc1)C(=O)O` [Compound 20], in experiment [2] (Compound 20 120 mg/kg vs Sivelestat sodium 30 mg/kg), the “improvement of pulmonary hemorrhage, reduction of protein exudation and white blood cell count in alveolar lavage fluid, compared with Sivelestat sodium” value is listed as “more obviously compared with Sivelestat sodium”. In addition, in experiment [2] (setting [4]), the “Protein content in alveolar lavage fluid” value is recorded as 0.30 ± 0.05 mg/mL; the “Pulmonary hemorrhage (IOD, absorbance at 412 nm)” value amounted to 0.20 ± 0.03; the “White blood cell count (WBC, 1 × 10^6 cell/mL)” value is given as 0.28 ± 0.10 ** 1 × 10^6 cell/mL. In experiment [3] (both 75 mg/kg total, i.v.), the “inhibitory effects on inflammatory factors IL-1B and TNF-α, compared with Sivelestat sodium” value was “significantly better than those of Sivelestat sodium”. In addition, in experiment [3], the “Content of inflammatory factor IL-1β (Mean ± SD)” value is on record as 784 ± 159 pg/mL and the “Content of inflammatory factor TNF-α (Mean ± SD)” value stood at 442 ± 118 pg/mL. The same compound registered an IC50 in experiment [1] of 2.47 nM.
`C[C@@H](NC(=O)c1cc(F)ccc1NS(=O)(=O)c1ccc(OC(=O)C(C)(C)C)cc1)C(=O)O` [Compound 21] displayed an IC50 in experiment [1] of 2.26 nM.
Regarding `C[C@@H](NC(=O)c1cc(C#N)ccc1NS(=O)(=O)c1ccc(OC(=O)C(C)(C)C)cc1)C(=O)O` [Compound 22], it took 2.2 nM to reach half-maximal inhibition in experiment [1] (IC50). The IC50 values of the last two compounds are within 1.5-fold of each other.
For the compound `C[C@@H](NC(=O)c1ccccc1NS(=O)(=O)c1ccc(OC(=O)C(C)(C)C)c(F)c1)C(=O)O` [Compound 23], in experiment [1], the IC50 was determined as 3.69 nM.
In experiment [1], `COC[C@@H](NC(=O)c1cc(C#N)ccc1NS(=O)(=O)c1ccc(OC(=O)C(C)(C)C)cc1)C(=O)O` [Compound 24] showed an IC50 of 1.5 nM.
On the same count and under the same terms, next, `[2H]C([2H])([2H])OC[C@@H](NC(=O)c1ccccc1NS(=O)(=O)c1ccc(OC(=O)C(C)(C)C)cc1)C(=O)O` [Compound 25, O-(methyl-d3)-N-(2-((4-(pivaloyloxy)phenyl)sulfonamido)benzoyl)-D-serine]: 2.54 nM; `COC[C@H](NC(=O)c1ccccc1NS(=O)(=O)c1ccc(OC(=O)C(C)(C)C)cc1)C(=O)O` [Compound 26]: 8.49 nM.
For the compound `CSCC(NC(=O)c1ccccc1NS(=O)(=O)c1ccc(OC(=O)C(C)(C)C)cc1)C(=O)O` (centres unmarked) [Compound 27], in experiment [1], the IC50 is 130 nM.
On to `CC(C)(C)C(=O)Oc1ccc(S(=O)(=O)Nc2ccccc2C(=O)NCC(=O)O)cc1` [Sivelestat sodium, reference compound], for which, in experiment [2] (setting [5]), the “Protein content in alveolar lavage fluid (mg/mL)” value is 0.35 ± 0.07 **^ mg/mL; the “Pulmonary hemorrhage (IOD, absorbance at 412 nm)” value is 0.25 ± 0.10; the “White blood cell count (WBC, 1 × 10^6 cell/mL)” value was 0.42 ± 0.11 1 × 10^6 cell/mL. Besides, in experiment [3], the “Content of inflammatory factor IL-1β (Mean ± SD)” value is reported as 1048 ± 384 ^ pg/mL and the “Content of inflammatory factor TNF-α (Mean ± SD)” value is reported as 552 ± 77 pg/mL.
